One data set addresses T1, recombinant MMP-2 (Homo sapiens, UniProt P08253).
T1 construct: purchased ab139446
In words: MMP-2 Inhibitor Screening Assay Kit (colorimetric). Type of data set: biochemical. As to the method: MMP-2 is an important target for inhibitor screening due to its involvement in cancer growth, angiogenesis, and metastasis. The MMP-2 screening assay was carried out with a commercially available MMP-2 Inhibitor Screening Assay Kit (Colorimetric, Catalog: ab139446) based on the manufacturers protocol. This assay is based on quantification of recombinant MMP-2 activity using a colorimetric assay (MMP-2 degrades a chromogenic substrate). The assay provides NNGH (N-isobutyl-N-(4-methoxyphenylsulfonyl) glycyl hydroxamic acid), a small molecule inhibitor, as a positive control (NNGH). […] Each determination was run in duplicate.
Briefly, MMP Substrate and MMP Inhibitor were warmed to room temperature to thaw DMSO. MMP Inhibitor (NNGH), MMP-2 substrate and MMP-2 enzyme were diluted with assay buffer to required concentration. 20 μL of MMP-2 enzyme and MMP-2 inhibitor (peptides, Chlorotoxin and NNGH) was added, then 50 μL of assay buffer was added and the reaction mixture incubated at 37° C. for 1 h. After incubation, 10 μL of MMP Substrate was added to start reaction. The reactions were continuously read at 412 nm in a microplate reader. Data was recorded at 1 min. time intervals for 10 to 20 min. The data as was plotted as optical density (OD) versus time for each sample. The reaction velocity (V) was obtained in OD/min: determine the slope of a line fit to the linear portion of the data plot using an appropriate routine. Then using the equation above the inhibitor % activity remaining was calculated. The control was without inhibitor.

In a further data set the test system is MMP-9. Description: Gelatin zymography of conditioned media (metalloprotease production). The format is cell-based, human. The settings on record: conditioned medium, compared to no-peptide control. The source says: (§1) To assess whether the peptide SEQ ID NO. 1 impacted MMP-2, MMP-9 and uPA production Zymography was used.
(§2) Zymography is a technique for studying hydrolytic enzymes on the basis of substrate degradation (Vandooren, J. et al. 2013). The in-gel zymography hydrolytic enzymes are separated by their molecular weights and detected by their ability to degrade a substrate. To detect the activity of MMP-2 and MMP-9 in various cell lines, conditioned media were collected in 3 independent experiments and analysed by gelatin zymography to quantify the level of gelatin digestion, which reflects MMP-2 and MMP-9 activity and production. Cascin-Plasminogen zymography was conducted to determine the activity level of uPA in the conditioned medium from various cell lines. Active uPA converts plasminogen into plasmin which then digests casein, thus clear bands where digestion of casein have occurred indirectly represent uPA activity.
(§3) The effect of the peptides on matrix protease production was tested using in-gel zymography. If the substrate included in the gel is gelatin, the enzymes detected are gelatinases: MMP-2 and MMP-9 (the latter is often of low abundance). If the gel contains casein and plasminogen, the enzymes tested are urokinase plasminogen activators (uPA); uPA is a therapeutic target in GBM.
(§4) An equal amount of protein from each sample was mixed with 5 μL of Laemmli buffer (0.01% Bromophenol Blue (W/V), 5% SDS (W/V), 22% glycerol (V/V), 14% 0.5 M Tris pH 6.8 (V/V)) and loaded onto a 10% polyacrylamide gel co-polymerized with 1 mg/ml of gelatin, and electrophoresed at 120V for 2 hours on ice. The gel was incubated in […] solution (Triton X-100 2.5% (V/V), 1 M Tris pH 7.5 5% (V/V), 0.5 M CaCl2) 1% (W/V) at room temperature overnight on an orbital shaker. The gel was incubated in a second solution for 3 hours at 37° C. The gel was then stained with Coomassie blue solution (Coomassie blue 0.25%, methanol 45%, acetic acid 10%) and destained in methanol 25% (V/V), acetic acid 10% (V/V) destaining solution until clear bands against the dark background appeared around 72 kDa and 95 kDa, representing MMP-2 and MMP-9 activity, respectively. Clear bands around 50 kDa appeared against the dark background representing uPA activity. The gels were scanned, and uPA, MMP-2 and MMP-9 were quantified by densitometry using NIH Image J software.
(§5) SEQ ID NO. 1 was compared to a control containing no peptide to evaluate whether the peptide can reduce the production of matrix proteinases. A reduction in the production of matrix proteinases may be anticipated to result in comparatively less degradation of the extra-cellular matrix and so this could be one pathway by which the invasion potential could be reduced.

The subject of a further data set is MMP-2. Described as above. The format is cell-based, human. The settings on record: for MMP-2 production: conditioned medium, compared to no-peptide control.
From the text: as §1, §2, §3, §4, §5

On data set [1], the source says:
The MTT (3-[4.5-dimethylthiazol-2-yl]-2,5=diphenyl tetrazolium bromide) assay is based on a process undertaken by living cells, involving the conversion of MTT into formazan crystals. This assay is used routinely to measure the in vitro cytotoxic effects of drugs on cell lines or primary patient cells (Van Meerloo et al., 2011).
The glioblastoma multiforme (GBM) cell lines used were U87 and U251 cells and patient derived cells grown as oncospheres (081024 cells). Human adherent GBM cell lines U87 and U251 were cultured in RPMI medium (Life Technologies Melbourne Australia) supplemented with 5% v/v FBS, 100 U/mL penicillin and 100 μg/mL streptomycin. 081024 cells were cultured in NeuroCult™ NS-A Proliferation medium with 0.2% (v/v) hepain, 20 ng/mL EGF and 10 ng/ml FGF.
8×10^3 U87 and 7×10^3 U251 cells per well were seeded in 96 well plates in 200 μL serum-containing RPMI medium and incubated at 37° C. with 5% CO2 for 24 hours. After one wash with serum-free medium, 100 μL serum-free medium with different concentration of peptide SEQ ID NO:1 was added to each well. After 48 hours incubation, 10 μL of 0.5 mg/mL MTT was added and incubated for 2 hours at 37° C. Formazan crystals were dissolved by 200 μL/well dimethyl sulfoxide (DMSO) and shaking for 15 minutes. The UV absorbance was read with an iMark™ microplate absorbance reader at 595 nm (Bio-Rad Laboratories). Background absorbance was subtracted and results expressed as the % viability of control (untreated cells).

T1 sequence (P08253 110-446 limits assumed): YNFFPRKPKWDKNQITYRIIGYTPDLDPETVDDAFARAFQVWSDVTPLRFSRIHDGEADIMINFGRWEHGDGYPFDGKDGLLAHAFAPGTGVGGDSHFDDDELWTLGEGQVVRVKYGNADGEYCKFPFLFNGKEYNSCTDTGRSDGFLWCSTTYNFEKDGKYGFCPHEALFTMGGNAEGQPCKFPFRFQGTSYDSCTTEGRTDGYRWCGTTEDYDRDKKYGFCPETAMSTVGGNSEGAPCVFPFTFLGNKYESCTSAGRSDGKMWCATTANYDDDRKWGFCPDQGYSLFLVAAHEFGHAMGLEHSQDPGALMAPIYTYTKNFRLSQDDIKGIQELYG

For the compound `CC(C)C[C@@H](NC(=O)[C@@H](Cc1ccccc1)NC(=O)CNC(=O)CNC(=O)[C@H](N)Cc1ccc(O)cc1)C(=O)N[C@H](CCCNC(=N)N)C(=O)N[C@H](CCCNC(=N)N)C(N)=O` [SEQ ID NO. 1, tyr-Gly-Gly-phe-leu-arg-arg-NH2], the activity at 1 µM on recombinant MMP-2 (1 μM, lower % = higher inhibitory activity, read-out: % inhibition (MMP-2 inhibitor screening)) came out at 66.4%. In addition, on recombinant MMP-2 (10 μM, lower % = higher inhibitory activity, read-out: % inhibition (MMP-2 inhibitor screening)), the activity at 10 µM was 61.8%. For the same compound, the activity at 100 µM on recombinant MMP-2 (100 μM, lower % = higher inhibitory activity, read-out: % inhibition (MMP-2 inhibitor screening)) turned out to be 50.4%. In addition, the “ability to inhibit MMP-2 activity (in words)” value on recombinant MMP-2 (1 to 100 μM) was “dose dependent ability to inhibit MMP-2 activity”. Also, the figures for the MMP-9 production in the data set on MMP-9 (081024 cells), with MMP-9 (U87 cells) and in the data set with MMP-9 (U251 cells) were 101.4, 67.83 and 65.41, respectively. Moreover, the values for the MMP-2 production in the data set with MMP-2 (081024 cells), in the data set with MMP-2 (U87 cells) and in the data set with MMP-2 (U251 cells) were 100.50, 91.11 and 97.13, respectively. Also, the “effect on production of MMP-2 (in words)” value in the data set with MMP-2 (overall, versus no-peptide control) is recorded as “did not decrease the production”. The viability at 5 µM in data set [1] is 97.9%. In addition, in data set [1], the viability at 50 µM turned out to be 101%. In addition, the viability at 100 µM in data set [1] came out at 95.9%.
